Test results as given in patent US6696533B1, “Stable N-oxly radical assisted emulsion polymerization under pressure” (BASF Aktiengesellschaft, priority 1997, dated 2004).

Text: The monomers and polymerization auxiliaries used in the examples below were used without further purification, in other words as acquired.

molal solubility in water: 6.4e-05 mol/kg
SMILES: CC1(C)CCCC(C)(C)N1O [TEMPO, 2,2,6,6-tetramethyl-1-oxyl-piperidine]
